Experimental data: patent US20040023884A1, “Biologically active peptides from functional domains of bactericidal/permeability-increasing protein and uses thereof” (priority 1993, published 2004)
Square brackets hold non-standard residues; d marks the D form. Ends that are not written are not given here. 1Nal = N[C@@H](Cc1cccc2ccccc12)C(=O)O

How the values were obtained:
[1] = test system: rough mutant E. coli J5 bacteria; assay: Radial diffusion bactericidal assay, E. coli J5; format: cell-based; details: radial diffusion; for pmol added to well to achieve a 30 mm^2 bactericidal zone, E. coli J5: PROBIT analysis, E. coli J5 (rough)
Procedure: BPI proteolytic fragments produced according to Example 1 were screened for bactericidal effects using rough mutant E. coli J5 bacteria in a radial diffusion assay. Specifically, an overnight culture of E. coli J5 was diluted 1:50 into fresh tryptic soy broth and incubated for 3 hours at 37° C. to attain log phase growth of the culture. Bacteria were then pelleted at 3,000 rpm for 5 minutes in a Sorvall RT6000B centrifuge (Sorvall Instruments, Newton, Conn.). 5 mL of 10 mM sodium phosphate buffer (pH 7.4) was added and the preparation was re-pelleted. […] The bacteria were diluted to 4×10^6 CFU/mL in 10 mL of molten underlayer agarose (at approximately 45° C.) and inverted repeatedly to mix in 15 mL polypropylene tubes conventionally used for this purpose.
The entire contents of such tubes were then poured into a level square petri dish and distributed evenly by rocking the dish side-to-side. […] A series of wells were then punched into the hardened agarose using a sterile 3 mm punch attached to a vacuum apparatus. The punch was sterilized with 100% alcohol and allowed to air dry prior to use to avoid contaminating the bacterial culture.
5 or 10 μL of each of the BPI fragments were carefully pipetted into each well. As a negative control, dilution buffer (pH 8.3) was added to a separate well, and rBPI23 at concentrations of 5 μg/mL and 1 μg/mL were also added as positive controls. Each plate was incubated at 37° C. for 3 hours, and then 10 mL of molten overlayer agarose (at approximately 45° C.) was added into the level petri dish, allowed to harden and incubated overnight at 37° C. […] The bacterial zones were measured with a micrometer.

Staphylococcus aureus = assay: Radial diffusion bactericidal assay, Staphylococcus aureus; format: cell-based; details: radial diffusion; PROBIT analysis; S. aureus
[2] = test system: E. coli 0111:B4 (smooth) bacteria; assay: Radial diffusion bactericidal assay, E. coli 0111:B4; format: cell-based; details: radial diffusion; PROBIT analysis; E. coli O111:B4 (smooth)
[3] = 3H-heparin binding assay (affinity and capacity); details: for cpm ^3H-Heparin bound: 100 picomoles of each fragment per well, saturating 3H-heparin 20 μg/mL, mean of duplicate wells ± range; for Heparin Capacity: heparin bound at saturation; for Kd: read-out: Heparin Affinity
Procedure: Briefly, each fragment was added to wells of a 96-well microtiter plate having a polyvinylidene difluoride membrane (Immunobilon-P, Millipore, Bedford, Mass.) disposed at the bottom of the wells. […] Positive control wells contained varying amounts of rBPI23. […] DuPont-NEN, Wilmington, Del.) were made in the blocking buffer and incubated in the BPI peptide-containing wells for one hour at 4° C. The unbound heparin was aspirated and the wells were washed three times with blocking buffer, dried and removed for quantitation in a liquid scintillation counter (Model 1217, LKB, Gaithersburg, Md.). Although BSA in the blocking buffer did show a low affinity and capacity to bind heparin, this was considered physiologically irrelevant and the background was routinely subtracted from the test compound signal.

Row | Substance | bactericidal activity (in words) ([1]; E. coli J5) | pmol added to well to achieve a 30 mm^2 bactericidal zone, S. aureus (Staphylococcus aureus) | pmol added to well to achieve a 30 mm^2 bactericidal zone, E. coli J5 [1] | pmol added to well to achieve a 30 mm^2 bactericidal zone, E. coli O111:B4 [2] | cpm ^3H-Heparin bound [3] | Heparin Capacity [3] [ng] | Kd [3] [nM]
1 | 85-99: 15-mer pin-synthesized peptide corresponding to amino acids 85-99 of BPI, with cyclo(lysylprolyl) moiety on the carboxyl-terminus (IKISGKWKAQKRFLK-{cyclo(lysylprolyl)}; UniProt P17213 116-130, looked up, fragment) | found to have bactericidal activity |  |  |  |  |  | 
2 | KSKVGWLIQLFHKAβ-(1-naphthyl) (KSKVGWLIQLFHK[1Nal]) [BPI.111] |  | 12,467.42 pmol | 969.00 pmol | 7,232.08 pmol |  |  | 
3 | KSKVGWLIQLFAβ-(1-naphthyl)KK (KSKVGWLIQLF[1Nal]KK) [BPI.110] |  | b (no detectable activity up to 5 μg/well) | 812.33 pmol | 7,952.04 pmol |  |  | 
4 | A3: Asp-N fragment of rBPI23, residues 39-56 (DSFKIKHLGKGHYSFYSM; UniProt P17213 70-87, looked up, fragment) |  |  |  |  | 8,664 ± 128 cpm |  | 
5 | SVHVHISKSKVGWLIQLFHKKIESALRNK [BPI.12] |  |  | 524.80 pmol | b (no detectable activity up to 5 μg/well) |  | 231.5 | 285
6 | CIKISGKWKAQKRFLKC [BPI.65 (ox.)] |  |  |  |  |  | 190.6 | 160
7 | IKISGKWKAQKRWLK [BPI.141] |  | b (no detectable activity up to 5 μg/well) | 2,809.51 pmol | b (no detectable activity up to 5 μg/well) |  |  | 
8 | KSKVGWLITLFHKK [BPI.106] |  | b (no detectable activity up to 5 μg/well) | 427.12 pmol | 3,413.80 pmol |  |  | 
9 | IKISGKAβ-(1-naphthyl)KAAβ-(1-naphthyl)Aβ-(1-naphthyl)RFLK (IKISGK[1Nal]KA[1Nal][1Nal]RFLK) [BPI.122] |  | 2,631,667.24 pmol | 179.89 pmol | 2,123.57 pmol |  |  | 
10 | KWQLRSKGKIKIFKA [BPI.114] |  | b (no detectable activity up to 5 μg/well) | 1,696.20 pmol | b (no detectable activity up to 5 μg/well) |  |  | 
11 | KSKVGWLIQFFHKK [BPI.113] |  | b (no detectable activity up to 5 μg/well) | 270.66 pmol | 8,671.73 pmol |  |  | 
12 | KSKVGWLIQLAβ-(1-naphthyl)HKK (KSKVGWLIQL[1Nal]HKK) [BPI.109] |  | b (no detectable activity up to 5 μg/well) | 308.60 pmol | 44,875.41 pmol |  |  | 
13 | KSKVGWLIQLFHKW [BPI.108] |  | 1,413,131,872.57 pmol | 661.05 pmol | 306,965.11 pmol |  |  | 
14 | C6: CNBr fragment of rBPI23, residues 171-196 (NSQVCEKVTNSVSSELQPYFQTLPVM; CNBr fragment; UniProt P17213 202-227, looked up, fragment) |  |  |  |  | 26,204 ± 844 cpm |  | 
15 | KSKVKWLIQLWHKK [BPI.124] |  | b (no detectable activity up to 5 μg/well) | 91.23 pmol | 3,916.32 pmol |  |  | 
